The record followed here is ChEMBL document CHEMBL2146393, “Synthesis and antiviral activity of 4,6-disubstituted pyrimido[4,5-b]indole ribonucleosides” (Bioorg Med Chem, 2012).

Structures are written as SMILES. The source made the active and inactive calls. No cut-off for these calls is given here.

In one series the test system is Hepatitis C virus. As to the kind of experiment: Antiviral activity against Hepatitis C virus. The format is functional, organism-based. Particulars: Hepacivirus hominis.
Series [1] relates to HeLa. As to the kind of experiment: Cytotoxic activity against human HeLa cells. The series is classed as cell-based.
Series [2] relates to HL-60. As to the kind of experiment: Cytostatic activity against human HL60 cells. The format is cell-based.
A further series relates to dengue virus type 2. The experiment in a line: Antiviral activity against Dengue virus 2 NGC infected in human HuH7-Ehr2 cells after 48 hrs by luciferase reporter gene assay. Particulars: Huh-7, 48 h. The format is functional, organism-based. On the technique in general: Reporter assays use an easily measured gene product as a stand-in for the process of interest.
Series [3] relates to CCRF-CEM. As to the kind of experiment: Cytotoxic activity against human CCRF-CEM cells. The format is cell-based.
In series [4] the test system is HeLa. The experiment in a line: Cytostatic activity against human HeLa cells. The format is cell-based.
Another series concerns THP-1. As to the kind of experiment: Cytotoxicity against human THP1 cells after 96 hrs by CCK8 assay. The series is classed as cell-based. Particulars: THP-1, 96 h. Background: Tetrazolium assays rely on reduction of a dye to a coloured formazan, in cell work by metabolically active cells.
In series [5] the test system is CCRF-CEM. The experiment in a line: Cytostatic activity against human CCRF-CEM cells. The format is cell-based.
Series [6] relates to HL-60. As to the kind of experiment: Cytotoxic activity against human HL60 cells. The format is cell-based.
The nature of series [7]: Cytotoxicity against human HepG2 cells after 96 hrs by CCK8 assay. The format is cell-based.

One may read the IC50 as the concentration that inhibits the measured activity by half. For orientation: CC50 means the concentration giving 50% cytotoxicity. High values mean better tolerance by the cells, low ones harm at low concentration. As to `OC[C@H]1O[C@@H](n2c3ccc(Cl)cc3c3c(-c4ccco4)ncnc32)[C@H](O)[C@@H]1O`, the result with Hepatitis C virus was inactive. The Activity result in the series on HeLa [1], in the series on HL-60 [2], in the series on CCRF-CEM [3], in the series on HeLa [4], in the series with CCRF-CEM [5] and in the series on HL-60 [6] was “Non-toxic” throughout. Besides, the figures for the IC50 in the series with dengue virus type 2 and with THP-1 were 0.238 µM and 1.56 µM, respectively. In series [7], this compound gave a CC50 at 96 h of 0.175 µM.

`OC[C@H]1O[C@@H](n2c3ccc(Cl)cc3c3c(-c4ccoc4)ncnc32)[C@H](O)[C@@H]1O`: the outcome in the series with Hepatitis C virus was inactive. Besides, the Activity entry with HeLa [1], in the series on HL-60 [2], in the series on CCRF-CEM [3], in the series with HeLa [4], in the series on CCRF-CEM [5] and with HL-60 [6] was “Non-toxic” in each case. Further, the IC50 was 24.4 µM in the series with dengue virus type 2 and over 50 µM in the series with THP-1. Besides, the cytotoxic concentration (CC50) at 96 h in series [7] is over 50 µM.

On to `OC[C@H]1O[C@@H](n2c3ccc(Cl)cc3c3c(-c4cccs4)ncnc32)[C@H](O)[C@@H]1O`, for which the outcome in the series with Hepatitis C virus was inactive. Also, the Activity result in the series with HeLa [1], with HL-60 [2], in the series with CCRF-CEM [3], in the series with HeLa [4], in the series with CCRF-CEM [5] and in the series on HL-60 [6] was “Non-toxic” throughout. Further, the IC50 with dengue virus type 2 stood at 0.335 µM; in the series with THP-1, 45.9 µM. In [7], this compound gave a CC50 at 96 h of 19.9 µM.

With `OC[C@H]1O[C@@H](n2c3ccccc3c3c(-c4ccco4)ncnc32)[C@H](O)[C@@H]1O`, the result in the series on Hepatitis C virus was inactive. In addition, the Activity result in the series on HeLa [1], in the series on HL-60 [2], in the series on CCRF-CEM [3], in the series on HeLa [4], in the series with CCRF-CEM [5] and in the series with HL-60 [6] was “Non-toxic” in each case. The values for the IC50 in the series with dengue virus type 2 and in the series with THP-1 were 82.7 µM and over 50 µM, respectively. The same compound showed a CC50 at 96 h in [7] of over 50 µM.

For the compound `OC[C@H]1O[C@@H](n2c3ccc(Cl)cc3c3c(-c4ccsc4)ncnc32)[C@H](O)[C@@H]1O`, the outcome in the series with Hepatitis C virus was inactive. The Activity result in the series on HeLa [1], in the series with HL-60 [2], in the series on CCRF-CEM [3], in the series on HeLa [4], with CCRF-CEM [5] and with HL-60 [6] was “Non-toxic” each time. The IC50 with dengue virus type 2 is 87 µM; in the series on THP-1, over 50 µM. The compound also came in with a CC50 at 96 h in [7] of over 50 µM.

In the case of `OC[C@H]1O[C@@H](n2c3ccc(Cl)cc3c3c(-c4cc5ccccc5o4)ncnc32)[C@H](O)[C@@H]1O`, the result in the series with Hepatitis C virus was inactive. For the same compound, the Activity entry with HeLa [1], with HL-60 [2], with CCRF-CEM [3], in the series with HeLa [4], in the series with CCRF-CEM [5] and in the series on HL-60 [6] was “Non-toxic” throughout. The figures for the IC50 with dengue virus type 2 and in the series with THP-1 were 0.976 µM and over 50 µM, respectively. The compound further showed a cytotoxic concentration (CC50) at 96 h in series [7] of over 50 µM.

With `OC[C@H]1O[C@@H](n2c3ccc(-c4ccccc4)cc3c3c(-c4ccco4)ncnc32)[C@H](O)[C@@H]1O`, the outcome with Hepatitis C virus was inactive. Further, the Activity result in the series with HeLa [1], in the series on HL-60 [2], in the series with CCRF-CEM [3], in the series on HeLa [4], in the series with CCRF-CEM [5] and in the series with HL-60 [6] was “Non-toxic” each time. Besides, the IC50 in the series with dengue virus type 2 came to 2.91 µM; in the series with THP-1, 41.3 µM. The compound further showed a CC50 at 96 h in [7] of 20.7 µM.

For `OC[C@H]1O[C@@H](n2c3ccc(-c4ccoc4)cc3c3c(-c4ccco4)ncnc32)[C@H](O)[C@@H]1O`, the outcome in the series on Hepatitis C virus was inactive. Further, the Activity result in the series with HeLa [1], in the series on HL-60 [2], in the series with CCRF-CEM [3], in the series with HeLa [4], with CCRF-CEM [5] and with HL-60 [6] was “Non-toxic” in each case. Also, the figures for the IC50 in the series on dengue virus type 2 and with THP-1 were 32.1 µM and 45 µM, respectively. In series [7], this compound gave a CC50 at 96 h of 33.1 µM.

In the case of `OC[C@H]1O[C@@H](n2c3ccc(Cl)cc3c3c(-c4ccccc4)ncnc32)[C@H](O)[C@@H]1O`, the outcome in the series on Hepatitis C virus was inactive. The Activity result in the series with HeLa [1], in the series with HL-60 [2], with CCRF-CEM [3], in the series with HeLa [4], in the series with CCRF-CEM [5] and in the series on HL-60 [6] was “Non-toxic” each time. Also, the IC50 with dengue virus type 2 was 26.4 µM; in the series on THP-1 it was over 50 µM. The same compound came in with a CC50 at 96 h in series [7] of over 50 µM.

Take `OC[C@H]1O[C@@H](n2c3ccc(-c4ccco4)cc3c3c(-c4ccco4)ncnc32)[C@H](O)[C@@H]1O`: the outcome in the series on Hepatitis C virus was inactive. For the same compound, the Activity entry in the series with HeLa [1], in the series on HL-60 [2], with CCRF-CEM [3], in the series on HeLa [4], with CCRF-CEM [5] and in the series on HL-60 [6] was “Non-toxic” in each case. The IC50 in the series on dengue virus type 2 was 17.9 µM; with THP-1, over 50 µM. This compound displayed a CC50 at 96 h in series [7] of 7.44 µM.
